Starred links: 1 amine or outer side, 2 acyl side, 3 side chain; linkers in the order of their positions; H or OH if unused. Non-standard residues stand in square brackets, D forms with d. No end group written: not given here. Tyr(Me) = O-methyl tyrosine, COc1ccc(C[C@H](N[*:1])C(=O)[*:2])cc1
Legend:
Type in all cases: cell-based
S. aureus = test system: S. aureus
Procedure: (§1) In more detail, the filtrates (≈3.5 mg of protein by BCA) were concentrated to 2 ml by vacuum centrifugation in a Speed Vac Concentrator (Savant Instruments, Hicksville, N.Y.). Gel permeation chromatography was performed on a 1.2×65 cm BioGel P-10 gel permeation column with 5% acetic acid. Preparative continuous acid-urea PAGE electrophoresis was performed as described by Harwig, S. S. L. et al., Anal Biochem (1993) 208:382. Active fractions were pooled and purified by RP-HPLC a 4.6×250 mm Vydac C18 column, using various linear gradients of acetonitrile in 0.1% trifluoroacetic acid (TFA) or 0.13% heptafluorobutyric acid (HFBA). Throughout this multistep procedure, fractions were lyophilized, concentrated and tested for antimicrobial activity against Listeria monocytogenes strain EGD by a radial diffusion technique described in Lehrer, R. I. et al., J Immunol Methods (1991) 137:167. In these assays, the underlay gels contained 9 mM sodium phosphate and 1 mM sodium citrate buffer, 0.30 mg/ml of trypticase soy broth powder (BBL, Cockeysville, Md.) and 1% agarose at a final pH of 6.5.
(§2) Clavanin E(2-23) was tested in the standard underlay assay described in Example 1 herein wherein the underlay contained 10 mM sodium phosphate buffer, pH 7.4 and 1:100 trypticase soy broth with and without 200 mM NaCl. The known antimicrobials cecropin A, cecropin B, and cecropin P1 were used as controls.
(§3) The standard underlay assay was again conducted supplying both E(3-23) and PG-1 to the underlay. In these assays, the underlay contained in addition to 1% agarose, 10 mM sodium phosphate buffer, pH 7.4, 1:100 trypticase soy broth and 200 mM NaCl. The underlays contain PG-1 alone, E(3-23) alone, or combinations of E(3-23) and PG-1.
(§4) Finally, the activity of Clavanins A and E as well as E(3-23) and E(6-23) was tested against various target organisms at two pHs with and without salt.

Burkaholderia cepacia = test system: Burkaholderia cepacia
Procedure: as §1, §2, §3

E. coli ML-35P = assay: radial diffusion assay; conditions: radial diffusion (FIG. 5)
Procedure: as §1
(§5) In addition to Cecropin P1 and Magainin 1, the activity of Clavanin A(K) was also tested. Clavanin A(K) is identical to Clavanin A except that all of the histidine residues are replaced by lysine. […] The data are provided as minimal bacteriocidal concentrations expressed in μg/ml which are the X-intercepts of radial diffusion assays performed at pH 6.5 in an underlay that contained 10 mM buffer (9:1 citrate:phosphate), 1% agarose and 0.3 mg trypticase soy powder/ml.

L. monocytogenes EGD = assay: radial diffusion assay; conditions: for potency relative to Clavanins A and B: L. monocytogenes Strain EGD, radial diffusion (FIG. 5)
Procedure: as §1, §5
The effect of pH on antimicrobial activity against several organisms was tested in a pH range wherein histidine becomes comparably charged to lysine. FIGS. 6-8 show the results for native or synthetic Clavanin A and synthetic Clavanin A(K) using defensin NP-2 as a control, with respect to L. monocytogenes, E. coli, and C. albicans respectively. The radial diffusion assays were conducted as described in Examples 1 and 3 above.

P. aeruginosa [1] = assay: standard underlay assay; set-up: dose or concentration left out as unconfirmed; conditions: pH 7.4
Procedure: as §1
[…] The known antimicrobials cecropin A, cecropin B, and cecropin P1 were used as controls.
The standard underlay assay was again conducted supplying both E(3-23) and PG-1 to the underlay. […]

E. faecium = assay: radial diffusion assay; conditions: X-intercept of radial diffusion assay, pH 6.5
Procedure: as §1, §5

L. monocytogenes = assay: minimal bacteriocidal concentrations under various conditions; conditions: pH 5.5
Procedure: (§6) The Tables below show the minimal bacteriocidal concentrations of PG-1, histatin 5, and Clavanin E(3-23) against various organisms under various conditions. E(3-23) was active over a broad pH range and, unlike hisatin 5, it retained activity in the presence of physiological sodium chloride concentrations.
(§7) Low salt conditions (10 mM phosphate)
(§8) High salt conditions (10 mM phosphate+100 mM NaCl)

C. albicans = assay: minimal bacteriocidal concentrations and activity under various conditions; conditions: pH 5.5
Procedure: as §4, §6, §7, §8

P. aeruginosa [2] = assay: minimal bacteriocidal concentrations under various conditions; set-up: unit not given here; conditions: pH 5.5
Procedure: as §6, §7, §8

E. coli = assay: as above; set-up: unit not given here; conditions: pH 5.5
Procedure: as §6, §7, §8

[3] = test system: E. coli, L. monocytogenes, P. aeruginosa, S. areus and C. albicans; assay: activity against various target organisms at two pHs with and without salt; conditions: pH 5.5, 200 mM sodium chloride; most organisms (FIG. 13B)
Procedure: as §4

[4] = high salt (10 mM phosphate+100 mM NaCl)

KLLGKIIHHVGNFVHGFSHVF-NH2 [Clavanin E(3-23), KLL GKIIH HVGNF VHGFS HVF*]
MBC of E(3-23) in the presence of PG-1 (S. aureus; pH 7.4): 2.5 µg/mL | minimum bacterial concentration (MBC), agent alone (S. aureus; pH 7.4): 7.5 µg/mL | MBC of E(3-23) with PG-1 incorporated (Burkaholderia cepacia; pH 7.4): 2.5 µg/mL | MBC, agent alone (Burkaholderia cepacia; pH 7.4): 7.5 µg/mL

VFHLL GKIIH HVGNF VY' GFS HVF* [Clavanin C, Y' is o-methyl tyrosine]
potency relative to Clavanins A and B (E. coli ML-35P): 3-5 fold | potency relative to Clavanins A and B (L. monocytogenes EGD): 3-5 fold

Cecropin P1
activity, E(3-23) and cecropins compared (P. aeruginosa [1]): slightly more active than E(3-23) | minimal bacteriocidal concentration (E. faecium): 6.5 µg/mL

AFKLL GRIIH HVGNF VY' GFS HVF* (AFKLLGRIIHHVGNFV[Tyr(Me)]GFSHVF-NH2; also: C-terminal modification (*)) [Clavanin D, Y' is o-methyl tyrosine]
potency relative to Clavanins A and B (E. coli ML-35P): 3-5 fold | potency relative to Clavanins A and B (L. monocytogenes EGD): 3-5 fold

defensin NP-2
effect of pH of the assay on activity (L. monocytogenes EGD; L. monocytogenes, radial diffusion, pH 5.5, 6.5, 7.5 (FIG. 6)): no effect

cecropin A (KWKLFKKIEKVGQNIRDGIIKAGPAVAVVGQATQIAK; ends and bridges not checked; UniProt P01507 27-63, looked up) [known antimicrobial used as control]
activity, E(3-23) and cecropins compared (P. aeruginosa [1]): slightly more active than E(3-23)

histatin 5 [Hs-5]
minimal bacteriocidal concentration (L. monocytogenes; [4]): > 500 | minimal bacteriocidal concentration (L. monocytogenes; low salt (10 mM phosphate)): 11.8 | minimal bacteriocidal concentration (C. albicans; [4]): > 500 | minimal bacteriocidal concentration (C. albicans; low salt (10 mM phosphate)): 7.2 | minimal bacteriocidal concentration (P. aeruginosa [2]; [4]): > 500 | minimal bacteriocidal concentration (P. aeruginosa [2]; low salt (10 mM phosphate)): 2.2 | minimal bacteriocidal concentration (E. coli; [4]): 60.6 | minimal bacteriocidal concentration (E. coli; low salt (10 mM phosphate)): 1.1

CC(C)C[C@H](NC(=O)[C@H](CCCNC(=N)N)NC(=O)CNC(=O)CNC(=O)[C@@H](N)CCCNC(=N)N)C(=O)N[C@H]1CSSC[C@@H](C(=O)N[C@H](C(=O)NCC(=O)N[C@@H](CCCNC(=N)N)C(N)=O)C(C)C)NC(=O)[C@H](C(C)C)NC(=O)[C@@H]2CSSC[C@H](NC(=O)[C@H](Cc3ccc(O)cc3)NC1=O)C(=O)N[C@@H](CCCNC(=N)N)C(=O)N[C@@H](CCCNC(=N)N)C(=O)N[C@@H](CCCNC(=N)N)C(=O)N[C@@H](Cc1ccccc1)C(=O)N2 [PG-1]
minimal bacteriocidal concentration (L. monocytogenes; [4]): 0.10 | minimal bacteriocidal concentration (L. monocytogenes; low salt (10 mM phosphate)): 0.10 | MBC for PG-1 in the presence of E(3-23) (S. aureus; pH 7.4): 0.07 µg/mL | minimum bacterial concentration (MBC), agent alone (S. aureus; pH 7.4): approximately 0.9 μg/ml | minimal bacteriocidal concentration (C. albicans; [4]): 0.10 | minimal bacteriocidal concentration (C. albicans; low salt (10 mM phosphate)): 0.06 | effect of E(3-23) on MBC for PG-1 (Burkaholderia cepacia; B. cepacia, pH 7.4, 200 mM NaCl, 1 μg/ml E(3-23) present): did not effect MBC | minimal bacteriocidal concentration (P. aeruginosa [2]; [4]): 0.20 | minimal bacteriocidal concentration (P. aeruginosa [2]; low salt (10 mM phosphate)): 0.20 | minimal bacteriocidal concentration (E. coli; [4]): 0.04 | minimal bacteriocidal concentration (E. coli; low salt (10 mM phosphate)): 0.05

LFKLLGKIIHHVGNFVHGFSHVF (LFKLLGKIIHHVGNFVHGFSHVF) [Clavanin E]
effect of salt on activity (S. aureus; S. aureus, pH 5.5, 200 mM sodium chloride (FIG. 13B)): maintained its activity | effect of salt on activity [3]: better maintained

From patent publication US6040293A, “Clavanins” (priority 1997, dated 2000)
